The values below are quoted from earlier work in patent US20070098676A1, “FUNCTIONALLY DIVERSE MACROMOLECULES AND THEIR SYNTHESIS” (priority 2005, published 2007).

The test system of the data set is RSV. The settings on record: study conducted in 2001 (Huntley et al., 2002).

Regarding `NC(=O)CN(CC(N)=O)S(=O)(=O)c1cccc(Nc2nc(Nc3cccc(S(=O)(=O)N(CC(N)=O)CC(N)=O)c3)nc(Nc3ccc(-c4ccc(Nc5nc(Nc6cccc(S(=O)(=O)N(CC(N)=O)CC(N)=O)c6)nc(Nc6cccc(S(=O)(=O)N(CC(N)=O)CC(N)=O)c6)n5)cc4S(=O)(=O)O)c(S(=O)(=O)O)c3)n2)c1` [RFI-641], the “inhibition of RSV” value is “potent and selective inhibitor of RSV”.
